Values quoted from earlier work in patent publication US10172922B2, “Rapid-acting insulin compositions” (Eli Lilly and Company, priority 2014, dated 2019).

Conditions: on a molar basis

28^B-L-Lysine-29^B-L-proline human insulin [Insulin lispro]
Potency relative to human insulin: equipotent to human insulin on a molar basis
